We go through 15 molecules from patent publication US8624034B2, “Fluoro-pyridinone derivatives useful as antibacterial agents” (Pfizer Inc., priority 2011, dated 2014).

Each structure is given as a SMILES string. Values after ≈ are worked out from the molar mass of the structure shown. Where two headings read alike, the source gives them in different places.

Assay [1] has as its system Acinetobacter baumannii/haemolyticus, multidrug-resistant clinical isolate (AB-3167). The experiment in a line: MIC determination, AB-3167. The conditions noted are these: Table 3, lower of duplicate values. It is filed as cell-based. The procedure: (§1) The in vitro antibacterial activity of compounds described in the Examples was evaluated by minimum inhibitory concentration (MIC) testing according to Clinical and Laboratory Standards Institute (CLSI). See: Clinical and Laboratory Standards Institute. Methods for Dilution Antimicrobial Susceptibility Tests for Bacteria that Grow Aerobically; Approved Standard-Eighth Edition. CLSI document M7-A8 [ISBN 1-56238-689-1]. Clinical and Laboratory Standards Institute, 940 West Valley Road, Suite 1400, Wayne, Pa. 19087-1898 USA, 2006; also Clinical and Laboratory Standards Institute. Performance Standards for Antimicrobial Susceptibility Testing; Twentieth Informational Supplement. CLSI document M100-S20 [ISBN 1-56238-716-2]. Clinical and Laboratory Standards Institute.
(§2) The MIC determination is a standard laboratory method for evaluating the antibacterial activity of a compound. The MIC represents the lowest drug concentration that inhibits visible growth of bacteria following overnight incubation. […] Typically, the drug concentration range is broken down into 2-fold increments (e.g. 0.06 μg/mL, 0.12 μg/mL. 0.25 μg/mL, 0.50 μg/mL, 1.0 μg/mL, etc.) and the various drug concentrations are all individually incubated overnight with approximately the same number of bacteria. The MIC is then determined by visually inspecting the drug effect at each concentration, and identifying the lowest drug concentration that has inhibited bacterial growth as compared to the drug free control. Typically, bacteria continue to grow at drug concentrations lower than the MIC and don't grow at concentrations at and above the MIC.
(§3) The MIC values described in Table 2 and 3 below were derived from assays wherein each test compound was evaluated in duplicate. In cases where the duplicate values varied by 0-2-fold, the lower of the two values was reported below. Generally speaking, if the duplicate values varied by more than 2-fold, the assay was considered non-valid and was repeated until the variation between duplicate runs was ≦2-fold. In line with the CLSI guidelines referred to above, both control organisms and reference compounds were utilized in each MIC assay to provide proper quality control. MIC values generated with these control organisms and reference compounds were required to fall within a defined range for the assay to be considered valid and be included herein. Those skilled in the art will recognize that MIC values can and do vary from experiment to experiment. Generally speaking, it should be recognized that MIC values often vary +/−2-fold from experiment to experiment. While a single MIC is reported for each compound and each microorganism, the reader should not conclude that each compound was only tested once. Several of the compounds were subjected to multiple tests. The data reported in Tables 2 and 3 is reflective of the compounds relative activity and different MICs may have been generated on these occasions in line with the guidelines described above.
(§4) The following bacterial strains were used in these MIC determinations:
2) Acinetobacter baumannii/haemolyticus: Multidrug-resistant clinical isolate labeled as AB-3167 in Tables 2 and 3;

The target in assay [2] is T1, Pseudomonas aeruginosa LpxC enzyme (Pseudomonas aeruginosa, UniProt P47205).
T1 construct: made in house; host or cells: E. coli
T1 sequence (P47205 1-303): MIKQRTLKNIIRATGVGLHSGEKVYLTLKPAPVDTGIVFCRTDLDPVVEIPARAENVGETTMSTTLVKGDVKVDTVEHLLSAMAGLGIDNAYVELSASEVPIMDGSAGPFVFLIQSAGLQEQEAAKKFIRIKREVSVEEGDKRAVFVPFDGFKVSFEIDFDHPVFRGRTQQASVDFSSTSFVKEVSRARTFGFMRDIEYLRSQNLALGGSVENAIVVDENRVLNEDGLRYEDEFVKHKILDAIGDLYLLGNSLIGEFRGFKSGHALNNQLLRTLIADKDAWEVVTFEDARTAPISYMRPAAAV
The experiment in a line: IC50 assay, LpxC enzyme from P. aeruginosa (PA LpxC enzyme IC50). As to conditions: LpxC enzyme 0.1 nM, 25° C., 1 hour. Type of assay: biochemical. The procedure: In order to assess the compounds biological activity, selected in vitro assays were conducted on selected compounds. One of the assays measured the compounds ability to disrupt the synthesis of lipopolysaccharide, LPS, which is a component of the outer membrane of Gram-negative bacteria. Disruption of this synthesis is lethal to the bacteria. The assay determined the compound's ability to inhibit LpxC, which is the first enzyme in the biosynthetic pathway for LPS (measured as IC50). Additionally, MICs (minimal inhibitory concentrations) were determined for several bacteria. The specific protocols are described below:
A) IC50 Assay, LpxC Enzyme from P. aeruginosa (Labeled as PA LpxC Enzyme IC50):
At the end of 1 hour, 5 ul of 1 N HCl was added to stop the enzyme reaction, the plates were centrifuged, and then processed with the BioTrove Rapidfire HTMS Mass Spectrometry System. A no-enzyme control was used in calculating the IC50 values from the percent conversion values.

Assay [3] has as its system Escherichia coli EC-1: VOGEL, mouse virulent. The experiment in a line: MIC determination, EC-1. It is filed as cell-based. The conditions noted are these: Escherichia coli, read-out: EC-1 (MIC), Table 3, lower of duplicate values. The protocol:
as §1, §2, §3, §4
3) Escherichia coli EC-1: VOGEL, mouse virulent labeled as EC-1 in Tables 2 and 3;

For a further assay, the system named is PA:UC12120. The experiment in a line: MIC determination, PA:UC12120 (Table 3). Type of assay: cell-based, Pseudomonas aeruginosa. As to conditions: Pseudomonas aeruginosa, UC12120, Table 3, lower of duplicate values. The protocol: as §1, §2, §3
In Table 3 below, column 1 corresponds to the Example number, column 2 provides the IUPAC name, columns 3-6 provide in vitro biological data generated in the same manner as in Table 2, columns 7 and 8 provide the retention times and mass spectra generated via LCMS, using the method described below. All data is not currently available for all compounds, as indicated by a blank cell in Table 3.

As for `CC(CCn1cc(F)c(-c2ccccc2)cc1=O)(C(=O)NO)S(C)(=O)=O` (stereo not drawn) [Example 78, 4-(5-fluoro-2-oxo-4-phenylpyridin-1(2H)-yl)-N-hydroxy-2-methyl-2-(methylsulfonyl)butanamide], the minimum inhibitory concentration (MIC) – broadly, the least concentration at which growth counts as inhibited – is greater than 64 µg/mL in assay [1], 4 µg/mL (≈ 10.5 µM) in assay [3] and 1 µg/mL (≈ 2.61 µM) in the assay on PA:UC12120. Inhibition in assay [2] (PA:IC50, Table 3) was half-maximal at 2.8 nM (IC50).

Take `CN(C)Cc1ccc(-c2cc(=O)n(CCC(C)(C(=O)NO)S(C)(=O)=O)cc2F)cc1` (stereo not drawn) [Example 79, 4-[4-{4-[(dimethylamino)methyl]phenyl}-5-fluoro-2-oxopyridin-1(2H)-yl]-N-hydroxy-2-methyl-2-(methylsulfonyl)butanamide]: the MIC is greater than 64 µg/mL in assay [1], greater than 64 µg/mL in assay [3] and 16 µg/mL (≈ 36.4 µM) in the assay on PA:UC12120. In assay [2] (Table 3, read-out: PA:IC50), the IC50 (as a rule, the concentration that gives 50% inhibition) came to 35.9 nM.

`CC(CCn1cc(F)c(-c2ccc(O)nc2)cc1=O)(C(=O)NO)S(C)(=O)=O` (stereo not drawn) [Example 80, 4-(5′-fluoro-6-hydroxy-2′-oxo-3,4′-bipyridin-1′(2′H)-yl)-N-hydroxy-2-methyl-2-(methylsulfonyl)butanamide]: the MIC (in assay [1]; in assay [3]; against PA:UC12120) was greater than 64 µg/mL each time. Besides, the IC50 in assay [2] (Table 3, read-out: PA:IC50) was greater than 100 nM.

Consider `CC(=O)Nc1ccc(-c2cc(=O)n(CCC(C)(C(=O)NO)S(C)(=O)=O)cc2F)cc1` (stereo not drawn) [Example 81, 4-[4-(4-acetamidophenyl)-5-fluoro-2-oxopyridin-1(2H)-yl]-N-hydroxy-2-methyl-2-(methylsulfonyl)butanamide], for which the MIC was greater than 64 µg/mL in assay [1], 64 µg/mL (≈ 146 µM) in assay [3] and 32 µg/mL (≈ 72.8 µM) with PA:UC12120. Moreover, in assay [2] (Table 3, read-out: PA:IC50), the IC50 turned out to be 24.3 nM.

With `CC(CCn1cc(F)c(-c2cccc(C#N)c2)cc1=O)(C(=O)NO)S(C)(=O)=O` (stereo not drawn) [Example 82, 4-[4-(3-cyanophenyl)-5-fluoro-2-oxopyridin-1(2H)-yl]-N-hydroxy-2-methyl-2-(methylsulfonyl)butanamide], the MIC in assay [1] is greater than 64 µg/mL; in assay [3], 64 µg/mL (≈ 157 µM); against PA:UC12120, 8 µg/mL (≈ 19.6 µM). For the same molecule, in assay [2] (Table 3, read-out: PA:IC50), the IC50 worked out at 13 nM.

`Cc1ncc(-c2cc(=O)n(CCC(C)(C(=O)NO)S(C)(=O)=O)cc2F)cc1F` (stereo not drawn) [Example 83, 4-(5,5′-difluoro-6-methyl-2′-oxo-3,4′-bipyridin-1′(2′H)-yl)-N-hydroxy-2-methyl-2-(methylsulfonyl)butanamide]: the MIC is greater than 64 µg/mL in assay [1], greater than 64 µg/mL in assay [3] and 32 µg/mL (≈ 77 µM) in the assay on PA:UC12120. In addition, the half-maximal inhibitory concentration (IC50) in assay [2] (Table 3, read-out: PA:IC50) was 27.5 nM.

`CNC(=O)c1ccc(-c2cc(=O)n(CCC(C)(C(=O)NO)S(C)(=O)=O)cc2F)cc1` (stereo not drawn) [Example 84, 4-{5-fluoro-1-[4-(hydroxyamino)-3-methyl-3-(methylsulfonyl)-4-oxobutyl]-2-oxo-1,2-dihydropyridin-4-yl}-N-methylbenzamide]: the MIC (in assay [1]; in assay [3]; in the assay with PA:UC12120) was greater than 64 µg/mL throughout. In addition, in assay [2] (Table 3, read-out: PA:IC50), the IC50 was found to be 14.5 nM.

As to `CC(CCn1cc(F)c(-c2ccc(CO)nc2)cc1=O)(C(=O)NO)S(C)(=O)=O` (stereo not drawn) [Example 85, 4-[5′-fluoro-6-(hydroxymethyl)-2′-oxo-3,4′-bipyridin-1′(2′H)-yl]-N-hydroxy-2-methyl-2-(methylsulfonyl)butanamide], the MIC (in assay [1]; in assay [3]; against PA:UC12120) was greater than 64 µg/mL throughout. In addition, the IC50 in assay [2] (Table 3, read-out: PA:IC50) was greater than 100 nM.

With `CC(CCn1cc(F)c(-c2ccc(F)cc2)cc1=O)(C(=O)NO)S(C)(=O)=O` (stereo not drawn) [Example 86, 4-[5-fluoro-4-(4-fluorophenyl)-2-oxopyridin-1(2H)-yl]-N-hydroxy-2-methyl-2-(methylsulfonyl)butanamide], the MIC in assay [1] is greater than 64 µg/mL; in assay [3], 4 µg/mL (≈ 9.99 µM); in the assay with PA:UC12120, 1 µg/mL (≈ 2.5 µM). In addition, the IC50 in assay [2] (Table 3, read-out: PA:IC50) turned out to be 1.7 nM.

On to `CC(CCn1cc(F)c(-c2cnc3ccccc3c2)cc1=O)(C(=O)NO)S(C)(=O)=O` (stereo not drawn) [Example 87, 4-(5-fluoro-2-oxo-4-quinolin-3-ylpyridin-1(2H)-yl)-N-hydroxy-2-methyl-2-(methylsulfonyl)butanamide], for which the figures for the MIC (in assay [1]; in assay [3]; in the assay on PA:UC12120) were greater than 64 µg/mL, 16 µg/mL (≈ 36.9 µM) and 8 µg/mL (≈ 18.5 µM), respectively. Moreover, the half-inhibitory concentration (IC50) in assay [2] (Table 3, read-out: PA:IC50) was found to be 6.1 nM.

Regarding `COC(C)c1ccc(-c2cc(=O)n(CCC(C)(C(=O)NO)S(C)(=O)=O)cc2F)cc1` (stereo not drawn) [Example 88, 4-{5-fluoro-4-[4-(1-methoxyethyl)phenyl]-2-oxopyridin-1(2H)-yl}-N-hydroxy-2-methyl-2-(methylsulfonyl)butanamide], the figures for the MIC (in assay [1]; in assay [3]; with PA:UC12120) were greater than 64 µg/mL, 16 µg/mL (≈ 36.3 µM) and 4 µg/mL (≈ 9.08 µM), respectively. Besides, the IC50 in assay [2] (Table 3, read-out: PA:IC50) was determined as 7.6 nM.

As for `COc1ccc(-c2cc(=O)n(CCC(C)(C(=O)NO)S(C)(=O)=O)cc2F)cn1` (stereo not drawn) [Example 89, 4-(5′-fluoro-6-methoxy-2′-oxo-3,4′-bipyridin-1′(2′H)-yl)-N-hydroxy-2-methyl-2-(methylsulfonyl)butanamide], the MIC in assay [1] is greater than 64 µg/mL; in assay [3], 8 µg/mL (≈ 19.4 µM); against PA:UC12120, 2 µg/mL (≈ 4.84 µM). For the same molecule, in assay [2] (Table 3, read-out: PA:IC50), the IC50 came to 3.1 nM.

`CC(CCn1cc(F)c(-c2ccc(Cl)cn2)cc1=O)(C(=O)NO)S(C)(=O)=O` (stereo not drawn) [Example 90, 4-(5-chloro-5′-fluoro-2′-oxo-2,4′-bipyridin-1′(2′H)-yl)-N-hydroxy-2-methyl-2-(methylsulfonyl)butanamide]: the MIC in assay [1] is greater than 64 µg/mL; in assay [3] it was 64 µg/mL (≈ 153 µM); against PA:UC12120 it was 16 µg/mL (≈ 38.3 µM). Besides, in assay [2] (Table 3, read-out: PA:IC50), the IC50 came out at 12.5 nM.

As for `CC(CCn1cc(F)c(-c2ccc(CC#N)cc2)cc1=O)(C(=O)NO)S(C)(=O)=O` (stereo not drawn) [Example 91, 4-{4-[4-(cyanomethyl)phenyl]-5-fluoro-2-oxopyridin-1(2H)-yl}-N-hydroxy-2-methyl-2-(methylsulfonyl)butanamide], the MIC is greater than 64 µg/mL in assay [1], 16 µg/mL (≈ 38 µM) in assay [3] and 4 µg/mL (≈ 9.49 µM) against PA:UC12120. In assay [2] (Table 3, read-out: PA:IC50), the IC50 is 2.3 nM.

As for `CCOc1cc(-c2cc(=O)n(CCC(C)(C(=O)NO)S(C)(=O)=O)cc2F)ccn1` (stereo not drawn) [Example 92, 4-(2′-ethoxy-5-fluoro-2-oxo-4,4′-bipyridin-1(2H)-yl)-N-hydroxy-2-methyl-2-(methylsulfonyl)butanamide], the MIC in assay [1] was greater than 64 µg/mL; in assay [3], 8 µg/mL (≈ 18.7 µM); in the assay with PA:UC12120 it was 8 µg/mL (≈ 18.7 µM). The IC50 in assay [2] (Table 3, read-out: PA:IC50) stood at 5.7 nM.
